Assay results reported in patent US20090023731A1, “SOLUBLE EPOXIDE HYDROLASE INHIBITORS” (Arete Therapeutics, Inc., priority 2007, published 2009).

Legend:
[1] = system: soluble epoxide hydrolase (sEH); experiment: Fluorescent assay for mouse and human soluble epoxide hydrolase (CMNPC substrate); assay type: biochemical
Procedure: Recombinant mouse sEH (MsEH) and human sEH (HsEH) were produced in a baculovirus expression system as previously reported. […] The expressed proteins were purified from cell lysate by affinity chromatography. […] Protein concentration was quantified using the Pierce BCA assay using bovine serum albumin as the calibrating standard.
The IC50s for each inhibitor were according to the following procedure:
Bis/Tris HCl 25 mM pH 7.0 containing 0.1 mg/mL of BSA (buffer A) CMNPC at 0.25 mM in DMSO.
Mother solution of enzyme in buffer A (Mouse sEH at 6 μg/mL and Human sEH at 5 μg/mL). Inhibitor dissolved in DMSO at the appropriate concentration.
In a black 96 well plate, fill all the wells with 150 μL of buffer A.
Add 2 μL of DMSO in well A2 and A3, and then add 2 μL of inhibitor solution in A1 and A4 through A12.
Add […] of buffer A in row A, then mix several time and transfer […] to row B. Repeat this operation up to row H. The […] removed from row H is discarded.
Add […] of buffer A in column 1 and 2, then add […] of enzyme solution to column 3 to 12.
Incubate the plate for 5 minutes in the plate reader at 30° C.
During incubation prepare the working solution of substrate by mixing 3.68 mL of buffer A (4×0.920 mL) with 266 μL (2×133 μL) of substrate solution).
The velocities are used to analyze and calculate the IC50s.

## O=C(Nc1ccc(Oc2ccc(C(=O)O)cc2)cc1)Nc1cccc(C(F)(F)F)c1 [Compound 67, 4-(4-(3-(3-(trifluoromethyl)phenyl)ureido)phenoxy)benzoic acid]
[1]; inhibitor conc. 2000 nM
  % Inh: 99%
other
  melting point: 318 °C

## O=C(Nc1cccc(OCc2ccccc2)c1)NC12CC3CC(CC(C3)C1)C2 [Compound 57, 1-Adamantan-1-yl-3-(3-benzyloxy-phenyl)-urea]
[1]; inhibitor conc. 50 nM
  % Inh: 98%
other
  melting point: 232 to 235 °C

## O=C(Nc1ccc(C(F)(F)F)cc1)Nc1cccc(OCc2ccccc2)c1 [Compound 37, 1-(3-Benzyloxy-phenyl)-3-(4-trifluoromethyl-phenyl)-urea]
[1]; inhibitor conc. 50 nM
  % Inh: 99%
other
  melting point: 208 to 210 °C

## O=C(Nc1cccc(Oc2ccc(C(=O)O)cc2)c1)NC12CC3CC(CC(C3)C1)C2 [Compound 68]
other
  melting point: 152 to 154 °C

## O=C(Nc1ccc(F)cc1)Nc1cccc(OCc2ccccc2)c1 [Compound 38, 1-(3-Benzyloxy-phenyl)-3-(4-fluoro-phenyl)-urea]
[1]; inhibitor conc. 50 nM
  % Inh: 93%
other
  melting point: 187 to 189 °C

## O=C(Nc1ccc(Oc2ccccc2)cc1)Nc1ccc(C(F)(F)F)cc1 [Compound 39, 1-(4-Phenoxy-phenyl)-3-(4-trifluoromethyl-phenyl)-urea]
[1]; inhibitor conc. 50 nM
  % Inh: 90%
other
  melting point: 211 to 213 °C

## O=C(Nc1ccc(Oc2cccc(C(=O)O)c2)cc1)NC12CC3CC(CC(C3)C1)C2 [Compound 59, 3-(4-(3-Adamantan-1-ylureido)phenoxy)benzoic acid]
[1]; inhibitor conc. 5000 nM
  % Inh: 99%
other
  melting point: 185 to 187 °C

## O=C(Nc1ccc(Oc2ccc(C(=O)O)cc2)cc1)NC12CC3CC(CC(C3)C1)C2 [Compound 65, 4-(4-(3-(adamantyl)ureido)phenoxy)benzoic acid]
[1]; inhibitor conc. 2000 nM
  % Inh: 100%
other
  melting point: 162 to 166 °C

## O=C(Nc1ccc(Oc2ccc(C(=O)O)cc2)cc1)Nc1ccc(C(F)(F)F)cc1 [Compound 66, 4-(4-(3-(4-(trifluoromethyl)phenyl)ureido)phenoxy)benzoic acid]
[1]; inhibitor conc. 2000 nM
  % Inh: 100%
other
  melting point: > 400 °C

## O=C(Nc1ccc(C(F)(F)F)cc1)Nc1cccc(OCCCN2CCOCC2)c1 [Compound 9, 1-[3-(3-Morpholin-4-yl-propoxy)-phenyl]-3-(4-trifluoromethyl-phenyl)-urea]
[1]; inhibitor conc. 50 nM
  % Inh: 82%

## O=C(CNC12CC3CC(CC(C3)C1)C2)Nc1cccc(OCCCN2CCOCC2)c1 [Compound 58, 2-(Adamantan-1-ylamino)-N-[3-(3-morpholin-4-yl-propoxy)-phenyl]-acetamide]
[1]; inhibitor conc. 500 nM
  % Inh: 81%

## O=C(Nc1cccc(OCCCN2CCOCC2)c1)Nc1ccc2c(c1)OCO2 [Compound 8, 1-Benzo[1,3]dioxol-5-yl-3-[3-(3-morpholin-4-yl-propoxy)-phenyl]-urea]
[1]; inhibitor conc. 500 nM
  % Inh: 91%

## O=C(Nc1cccc(Oc2cccc(C(=O)O)c2)c1)NC12CC3CC(CC(C3)C1)C2 [Compound 70, 3-(3-(3-(adamantyl)ureido)phenoxy)benzoicacid]
[1]; inhibitor conc. 2000 nM
  % Inh: 95%

## O=C(CC12CC3CC(CC(C3)C1)C2)NC1CCC(OCCCN2CCOCC2)CC1 (stereo not shown) [Compound 50, 2-Adamantan-1-yl-N-[4-(3-morpholin-4-yl-propoxy)-cyclohexyl]-acetamide]
[1]; inhibitor conc. 500 nM
  % Inh: 85%

## O=C(Nc1cccc(OCCCN2CCOCC2)c1)Nc1c(Cl)cccc1Cl [Compound 3, 1-(2,6-Dichloro-phenyl)-3-[3-(3-morpholin-4-yl-propoxy)-phenyl]-urea]
[1]; inhibitor conc. 50000 nM
  % Inh: 90%

## O=C(Nc1ccc(OCCCN2CCOCC2)cc1)Nc1ccc(C(F)(F)F)cc1 [Compound 21, 1-[4-(3-Morpholin-4-yl-propoxy)-phenyl]-3-(4-trifluoromethyl-phenyl)-urea]
[1]; inhibitor conc. 50 nM
  % Inh: 96%

## O=C(Nc1ccc(F)c(OCCCN2CCOCC2)c1)NC1CCCCC1 [Compound 54, 1-Cyclohexyl-3-[4-fluoro-3-(3-morpholin-4-yl-propoxy)-phenyl]-urea]
[1]; inhibitor conc. 50 nM
  % Inh: 83%

## O=C(NC1CCCC(OCCCN2CCOCC2)C1)NC12CC3CC(CC(C3)C1)C2 (stereo not shown) [Compound 48, 1-Adamantan-1-yl-3-[3-(3-morpholin-4-yl-propoxy)-cyclohexyl]-urea]
[1]; inhibitor conc. 50 nM
  % Inh: 94%

## O=C(Cc1ccc(Cl)cc1)Nc1cccc(OCCCN2CCOCC2)c1 [Compound 22, 2-(4-Chloro-phenyl)-N-[3-(3-morpholin-4-yl-propoxy)-phenyl]-acetamide]
[1]; inhibitor conc. 500 nM
  % Inh: 73%

## O=C(Nc1cccc(OCCCN2CCOCC2)c1)Nc1ccc(F)c(F)c1 [Compound 4, 1-(3,4-Difluoro-phenyl)-3-[3-(3-morpholin-4-yl-propoxy)-phenyl]-urea]
[1]; inhibitor conc. 50 nM
  % Inh: 75%

## O=C(Nc1ccccc1)Nc1ccc(OCCCN2CCOCC2)cc1 [Compound 14, 1-[4-(3-Morpholin-4-yl-propoxy)-phenyl]-3-phenyl-urea]
[1]; inhibitor conc. 500 nM
  % Inh: 90%

## O=C(CC12CC3CC(CC(C3)C1)C2)Nc1cccc(OCCCN2CCOCC2)c1 [Compound 43, 2-Adamantan-1-yl-N-[3-(3-morpholin-4-yl-propoxy)-phenyl]-acetamide]
[1]; inhibitor conc. 50 nM
  % Inh: 93%

## O=C(NCCc1ccc(OCc2ccccc2)cc1)NCC12CC3CC(CC(C3)C1)C2 [Compound 73, 1-(4-(benzyloxy)phenethyl)-3-(adamantylmethyl)urea]
[1]; inhibitor conc. 200 nM
  % Inh: 97%

## O=C(Nc1ccc(OCCCN2CCOCC2)cc1)Nc1ccc(OC(F)(F)F)cc1 [Compound 34, 1-[4-(3-Morpholin-4-yl-propoxy)-phenyl]-3-(4-trifluoromethoxy-phenyl)-urea]
[1]; inhibitor conc. 50 nM
  % Inh: 91%

## O=C(Nc1ccccc1)Nc1ccc(F)c(OCCCN2CCOCC2)c1 [Compound 29, 1-[4-Fluoro-3-(3-morpholin-4-yl-propoxy)-phenyl]-3-phenyl-urea]
[1]; inhibitor conc. 500 nM
  % Inh: 73%

## O=C(Nc1ccc(C(F)(F)F)cc1)N[C@H]1CC[C@H](Oc2ccc(C(=O)O)cc2)CC1 [Compound 75]
[1]; inhibitor conc. 2000 nM
  % Inh: 95%

## O=C(Nc1cccc(OCCCN2CCOCC2)c1)Nc1c(F)cc(F)cc1F [Compound 6, 1-[3-(3-Morpholin-4-yl-propoxy)-phenyl]-3-(2,4,6-trifluoro-phenyl)-urea]
[1]; inhibitor conc. 50000 nM
  % Inh: 92%

## O=C(Nc1ccccc1)Nc1cccc(OCCCN2CCOCC2)c1 [Compound 1, 1-[3-(3-Morpholin-4-yl-propoxy)-phenyl]-3-phenyl-urea]
[1]; inhibitor conc. 500 nM
  % Inh: 62%

## S=C(Nc1cccc(OCCCN2CCOCC2)c1)NC12CC3CC(CC(C3)C1)C2 [Compound 61]
[1]; inhibitor conc. 500 nM
  % Inh: 96%

## O=C(Nc1ccc(Cl)cc1)Nc1ccc(OCCCN2CCOCC2)cc1 [Compound 26, 1-(4-Chloro-phenyl)-3-[4-(3-morpholin-4-yl-propoxy)-phenyl]-urea]
[1]; inhibitor conc. 50 nM
  % Inh: 88%

## O=C(Nc1cccc(OCCCN2CCOCC2)c1)C12CC3CC(CC(C3)C1)C2 [Compound 55, Adamantane-1-carboxylicacid [3-(3-morpholin-4-yl-propoxy)-phenyl]-amide]
[1]; inhibitor conc. 5000 nM
  % Inh: 90%

## O=C(Nc1ccc(Cl)cc1)Nc1cccc(OCCCN2CCOCC2)c1 [Compound 15, 1-(4-Chloro-phenyl)-3-[3-(3-morpholin-4-yl-propoxy)-phenyl]-urea]
[1]; inhibitor conc. 50 nM
  % Inh: 94%

## O=C(Nc1ccc(C(F)(F)F)cc1)Nc1cccc(Oc2ccccc2)c1 [Compound 40, 1-(3-Phenoxy-phenyl)-3-(4-trifluoromethyl-phenyl)-urea]
[1]; inhibitor conc. 50 nM
  % Inh: 96%
other
  melting point: 178 to 181 °C

## O=C(Nc1cccc(OCCCN2CCOCC2)c1)Nc1cccc(C(F)(F)F)c1 [Compound 10, 1-[3-(3-Morpholin-4-yl-propoxy)-phenyl]-3-(3-trifluoromethyl-phenyl)-urea]
[1]; inhibitor conc. 50 nM
  % Inh: 74%
